# From patent publication US5211944A, “Proanthocyanidin polymers having antiviral activity and methods of obtaining same” (Shaman Pharmaceuticals, Inc., priority 1991, dated 1993)
# Values joined by “and” are separate entries in the source; they are usually repeats but may differ in a detail not shown here. Identical values can stand only once. Like-named read-outs stand apart in the source and are kept apart here.
# Experiments:
# Adenovirus 5 = assay: In vitro antiviral assay, inhibition of CPE, adenovirus 5; format: cell-based; conditions: Human mastadenovirus C, HEp-2, HEp2 cells, Table 1 experiment 2, read-out: ED50 (the source's name)
# Measles = assay: In vitro antiviral assay, inhibition of CPE, measles; format: cell-based, Measles virus; conditions: Measles morbillivirus, HEp-2, HEp2 cells, Table 1 experiments 1-2, read-out: ED50 (the source's name)
# Influenza A = assay: microbe, parasite or virus in culture; format: cell-based; conditions: for EC50: Influenza A virus
# RSV A2 [1] = assay: RSV infection of cotton rats, oral dosing, lung titer; format: in vivo, Hispid Cotton Rats; conditions: for ED50: human respiratory syncytial virus, 72 h, 3-day oral dosing
# Procedure: (§1) Tissue control wells contained medium, but no virus. […] Virus control wells were observed daily. […] In addition to visual CPE, inhibition of syncytia formation is used to confirm activity against RSV. Lung RSV titer logm was calculated as described by Dubovi et al., 1983; 1984.
# All animals were killed on day 5 and lung tissues were collected. Lungs were removed and washed via transpleural lavage. The fluid collected was assessed for RSV titer in a microtiter assay using HEp2 cells as described above.
# Influenza A/NWS/33 virus [2] = conditions: for influenza inhibition (words): 75 mg/kg/day i.p.
# RSV or influenza virus = conditions: cited from earlier work
# [3] = test system: Respiratory syncytial virus (RSV); assay: microbe, parasite or virus in culture; format: cell-based; conditions: human respiratory syncytial virus
# Influenza B = assay: microbe, parasite or virus in culture; format: cell-based; conditions: for ED50: FLU-B; for EC50: Influenza B virus
# Parainfluenza virus 3 = assay: microbe, parasite or virus in culture; format: cell-based
# RSV A2 [4] = assay: RSV infection of cotton rats, intraperitoneal dosing, lung titer; format: in vivo, Hispid Cotton Rats; conditions: for % kill: versus control; for ED50: 3-day intraperitoneal dosing
# Procedure: Control animals received an equal volume of distilled water. […] All animals were killed on day 5. Lungs were removed and washed via transpleural lavage. The fluid collected was assessed for RSV titer in a microtiter assay using HEp2 cells.
# as §1
# PIV-1 = assay: In vitro antiviral assay, inhibition of CPE, PIV-1
# Adenovirus 7 = assay: In vitro antiviral assay, inhibition of CPE, adenovirus 7; format: cell-based; conditions: Human mastadenovirus B, HEp-2, HEp2 cells, Table 1 experiments 2-3, read-out: ED50 (the source's name)
# [5] = Table 16; 75 mg/kg/day i.p. bid × 5; female
# Influenza viruses = conditions: cited from earlier work
# Influenza A/NWS/33 virus [6] = conditions: i.p. once daily for 8 days
# [7] = test system: RNA-directed DNA polymerase; conditions: Sethi, 1977; cited from earlier work
# [8] = Persinos et al., 1979; cited from earlier work
# [9] = 75 mg/kg/day i.p. bid × 5, days 2, 4, 6, 8
# [10] = 75 mg/kg/day i.p. bid × 5 from 4 hr post-virus, female
structure (smiles),measurement,setting,value
"NC(=O)c1ncn([C@@H]2O[C@H](CO)[C@@H](O)[C@H]2O)n1 [Ribavirin, 1-β-D-ribofuranosyl-1,2,4-triazole 3-carboxamide]",EC50,Adenovirus 5,> 1000 µg/mL
same,EC50,Measles,31.3 µg/mL
same,EC50,"Influenza A; HEp-2, FLU-A, A-Leningrad, read-out: ED50 (the source's name)",6 µg/mL
same,EC50,"Influenza A; HEp-2, FLU-A, A-Shanghai, read-out: ED50 (the source's name)",6 µg/mL
same,EC50,"Influenza A; HEp-2, FLU-A, B-Japan, read-out: ED50 (the source's name)",1.6 µg/mL
same,EC50,"Influenza A; HEp-2, FLU-A, B-NWS/33, read-out: ED50 (the source's name)",1 µg/mL
same,EC50,"Influenza A; HEp-2, FLU-A, B-Portchalm, read-out: ED50 (the source's name)",1 µg/mL
same,EC50,"Influenza A; HEp-2, FLU-A, mean of all strains, read-out: ED50, MEAN",8.2 µg/mL
same,EC50,"Influenza A; HEp-2, Influenza A, HEp2 cells, Table 1 experiments 1-3, read-out: ED50 (the source's name)",15 µg/mL
same,ED50,"Influenza A; Influenza A, HEp2 cells, Table 1 experiments 1-3",14.3 µg/mL and 14 µg/mL
same,"Lung titer (RSV titer log 10/g lung, Mean ± S.D.)",RSV A2 [1]; 40 mg/kg oral,3.30 ± 0.5 log 10 /g lung
same,"Lung titer (antilog, in parentheses)",RSV A2 [1]; 40 mg/kg oral,"1,995"
same,reduction in lung titers,RSV A2 [1]; 40 mg/kg oral,> 90%
same,% kill,"RSV A2 [1]; 40 mg/kg oral, versus control",80%
same,ED50,"RSV A2 [1]; individual experiments, read-out: ED50",> 90 mg/kg
same,ED50,"RSV A2 [1]; mean, read-out: ED50, Mean ± SEM",> 90 mg/kg
same,influenza inhibition (words),Influenza A/NWS/33 virus [2],inhibitory to the virus infection
same,Mean SaO2 %,"Influenza A/NWS/33 virus [2]; 75 mg/kg/day i.p. bid × 5, daily for 10 days",81%
same,Mean Score (lung),Influenza A/NWS/33 virus [2]; [9],0.3
same,Mean Virus Titer (log10),Influenza A/NWS/33 virus [2]; [9],3.9 log10
same,"Infected, Treated Surv/Total",Influenza A/NWS/33 virus [2]; [10],10/10
same,MST,Influenza A/NWS/33 virus [2]; [10],> 21.0 days
same,"Infected, Treated Surv/Total","Influenza A/NWS/33 virus [2]; 75 mg/kg/day i.p. bid × 5 from 4 hr post-virus, female, listed as ribavirin","All infected, ribavirin-treated mice survived the infection"
same,influenza inhibition (words),Influenza A/NWS/33 virus [2]; listed as ribavirin,significant influenza inhibition
same,severity of illness and amount of virus shed,RSV or influenza virus; acute respiratory infections,reduce the severity of illness and amount of virus shed
same,teratogenicity,RSV or influenza virus; in animals,teratogenic in animals
same,EC50,"[3]; HEp-2, RSV B-46791, read-out: ED50 (the source's name)",8 µg/mL
same,EC50,"[3]; HEp-2, RSV B-47063, read-out: ED50 (the source's name)",12 µg/mL
same,EC50,"[3]; HEp-2, RSV, mean of all strains, read-out: ED50, MEAN",11.9 µg/mL
same,ED50,Influenza B; B-USSR,7.8 µg/mL
same,ED50,Influenza B; B-Yamagata,8.0 µg/mL
same,EC50,"Influenza B; HEp-2, FLU-B, B-HongKong, read-out: ED50 (the source's name)",1 µg/mL
same,EC50,"Influenza B; HEp-2, FLU-B, B-USSR, read-out: ED50 (the source's name)",4 µg/mL
same,EC50,"Influenza B; HEp-2, FLU-B, B-Yamagata, read-out: ED50 (the source's name)",6 µg/mL
same,EC50,"Influenza B; HEp-2, FLU-B, mean of all strains, read-out: ED50, MEAN",5.8 µg/mL
same,EC50,"Influenza B; HEp-2, Influenza B, HEp2 cells, Table 1 experiments 1-2, read-out: ED50 (the source's name)",18 µg/mL
same,EC50,"Parainfluenza virus 3; HEp-2, PIV-3, mean, read-out: ED50, MEAN",15.4 µg/mL
same,EC50,"Parainfluenza virus 3; HEp-2, Parainfluenza virus (3), HEp2 cells, Table 1 experiments 1-3, read-out: ED50 (the source's name)",15.6 µg/mL
same,ED50,Parainfluenza virus 3; PIV-3,16.0 µg/mL
same,ED50,"Parainfluenza virus 3; Parainfluenza virus (3), HEp2 cells, Table 1 experiments 1-3",15.7 µg/mL and 12 µg/mL
same,CC50,"in vitro; ID50, FLU-A, B-Japan experiment",78 µg/mL
same,CC50,"in vitro; ID50, FLU-A, B-NWS/33 experiment",100 µg/mL
same,CC50,"in vitro; ID50, FLU-A, B-Portchalm experiment",68 µg/mL
same,CC50,"in vitro; ID50, FLU-B, B-HongKong experiment",80 µg/mL
same,CC50,"in vitro; ID50, MEAN, FLU-A experiments, mean",750 µg/mL
same,CC50,"in vitro; ID50, MEAN, FLU-B experiments, mean",847 µg/mL
same,CC50,"in vitro; ID50, MEAN, RSV experiments, mean",946 µg/mL
same,CC50,"in vitro; ID50, PIV-1 experiment",1000 µg/mL
same,CC50,"in vitro; ID50, PIV-3 experiment",1000 µg/mL
same,CC50,"in vitro; ID50, RSV A-Tracy experiment",1000 µg/mL
same,CC50,"in vitro; ID50, RSV B-18537 experiment",1000 µg/mL
same,CC50,"in vitro; ID50, RSV B-46791 experiment",1000 µg/mL
same,CC50,"in vitro; ID50, RSV B-47063 experiment",1000 µg/mL
same,"Lung titer (RSV titer log 10/g lung, Mean ± S.D.)",RSV A2 [4]; 10 mg/kg i.p.,4.5 ± 0.2 log 10 /g lung
same,"Lung titer (antilog, in parentheses)",RSV A2 [4]; 10 mg/kg i.p.,"31,622"
same,% kill,RSV A2 [4]; 10 mg/kg i.p.,0%
same,"Lung titer (RSV titer log 10/g lung, Mean ± S.D.)",RSV A2 [4]; 30 mg/kg i.p.,4.0 ± 0.3 log 10 /g lung
same,"Lung titer (antilog, in parentheses)",RSV A2 [4]; 30 mg/kg i.p.,"10,000"
same,% kill,RSV A2 [4]; 30 mg/kg i.p.,68.4%
same,reduction in lung titers,RSV A2 [4]; 40 mg/kg i.p.,50%
same,"Lung titer (RSV titer log 10/g lung, Mean ± S.D.)",RSV A2 [4]; 90 mg/kg i.p.,2.8 ± 0.3 log 10 /g lung
same,"Lung titer (antilog, in parentheses)",RSV A2 [4]; 90 mg/kg i.p.,631
same,% kill,RSV A2 [4]; 90 mg/kg i.p.,98%
same,ED50,RSV A2 [4]; individual experiments,30 mg/kg and 50 mg/kg
same,ED50,"RSV A2 [4]; human respiratory syncytial virus, ip, 72 h, individual experiments, read-out: ED50",40 mg/kg
same,ED50,"RSV A2 [4]; human respiratory syncytial virus, ip, 72 h, mean, read-out: ED50, Mean ± S.E.M.",40 ± 6 mg/kg
same,EC50,"PIV-1; HEp-2, read-out: ED50, MEAN, PIV-1, mean",10.7 µg/mL
same,EC50,"PIV-1; HEp-2, read-out: ED50, PIV-1",12 µg/mL
same,ED50,PIV-1; PIV-1,8.0 µg/mL
same,EC50,Adenovirus 7,> 1000 µg/mL
same,Host Wt. Change,[5],0.6 g
same,Toxicity controls Surv/Total,[5],5/5
"Cl.NC12CC3CC(CC(C3)C1)C2 [Amantadine, 1-Adamantanamine HCL]",central nervous system side effects,Influenza viruses,causes some central nervous system side effects
same,shortening of fever duration and respiratory symptoms,Influenza viruses,about 50%
same,inhibition of influenza A infection (overall words),Influenza A/NWS/33 virus [6],ineffective
COc1ccc2c(=O)oc3c(OC)cc(CCN(C)C)c4c(=O)oc1c2c34 [taspine],RNA-directed DNA polymerase activity,[7],inhibit RNA-directed DNA polymerase activity
same,anti-inflammatory activity,[8],exhibits anti-inflammatory activity
